Where two headings read alike, the source gives them in different places.
Key:
[1] = Pharmacokinetics and metabolism after iv and po administration; assay type: in vivo; settings: for MRT last: read-out: MRT0-last; for AUC(0-t): up to 7 h
Description: The plasma concentration-time profiles of the parent compounds and metabolites after administration iv and po to male C57/BL6 mice are presented in Figure 2, Figure 3 and Figure 4. Artemiside was quantifiable up to 24 h in all mice dosed iv and up to 7 h po (lower limit of quantitation LLOQ = 1.6 ng/mL or 0.004 μM) (Figure 2). […] For both artemiside and artemisox, the metabolite artemisone was quantifiable up to 3 h in both the po and iv groups (Figure 2 and Figure 3). Thereby it is confirmed that artemiside is rapidly converted via artemisox into artemisone. Artemisone itself was quantifiable up to three hours post dose (Figure 4). The mean circulating concentrations for the compounds and their metabolites are presented in Table S3a–f in the Supplementary Material 1. The metabolite M1 was also detected upon administration of artemiside, artemisox, and artemisone, but it was not quantified here; chromatograms indicating the presence of M1 are illustrated in Figure S3a–c in the Supplementary Material 1. In addition, the plasma concentration-time curves for artemiside and its metabolites artemisone and M1 following iv and po dosing in the same murine model are presented and discussed in detail elsewhere (cf. Figure 4 in reference).
All work was conducted with prior approval of the animal ethics committee of the University of Cape Town in accordance with the South African National Standards for the Care and Use of Animals for Scientific Purposes and guidelines from the South African Department of Health. The requirements and methods for the pharmacokinetics in vivo involving po and iv drug administration, sample extraction, analyses of samples by LC-MS/MS, and data analyses are described elsewhere. For the animal experiments and formulations, the compounds were dissolved in a 10:60:30 mixture of N,N-dimethylacetamide-polypropylene glycol-polyethylene glycol for intravenous dosing (iv) at 5 mg/kg. For the oral dose (po), compounds were individually dosed as a suspension in 0.5% (w/v) hydroxypropylmethylcellulose in water with 0.2% Tween80 at 50 mg/kg to male C57/BL6 mice (n = 3 for each group). For PK sampling, blood samples were collected at predetermined times (0.08, 0.25, 0.5, 1, 3, 5, 7, and 24 h) for both po and iv dosing via tail bleeding into heparinized tubes, centrifuged, and the plasma samples were stored at −80 °C until extraction. For preparation of samples, the frozen plasma samples were thawed and 15 μL was extracted by liquid–liquid extraction using a universal buffer (pH8) containing 10 ng/mL of the internal standard and ethyl acetate, and the extract was vortexed and centrifuged. Calibration standards and quality controls were extracted following the same procedure. Supernatants were dried down, reconstituted, and injected onto the column for LC-MS/MS analysis using an AB SCIEX 5500 QTRAP instrument coupled to an Agilent 1260 HPLC detection system as previously described.

[2] = test system: asexual blood stages of Pf K1 (drug resistant); set-up: method as in PMID 29866868, PMID 31998692; settings: cited from earlier work
[3] = test system: late-stage (LG) Pf NF54 gametocytes; set-up: method as in PMID 29866868; settings: late-stage gametocytes >90% stages IV-V; dose responses obtained at 72 h; ± SEM; cited from earlier work
P. falciparum W2 = test system: P. falciparum W2; set-up: method as in ref S3; settings: [3H]-hypoxanthine assay; ref S3; cited from earlier work
[4] = test system: P. falciparum asexual blood stage artemisinin-resistant clone ARC08-22 (4G) carrying the PfKI3 C580Y mutation; set-up: method as in ref S3; settings: ref S3, cited from earlier work
Toxoplasma gondii (Tg) [5] = test system: Toxoplasma gondii (Tg); set-up: method as in PMID 19635951; settings: read-out: EC50 against Tg in vitro; cited from earlier work
[6] = test system: type II tachyzoites (PRU-Luc-GFP); settings: sc 10 mg/kg/d for 8 days; cited from earlier work
Toxoplasma gondii (Tg) [7] = test system: Toxoplasma gondii (Tg); set-up: method as in PMID 19635951; settings: IFN-γ−/− female mice, 10 mg/kg/d for 8 days after cessation of sulfadiazine; cited from earlier work
[8] = cited from earlier work
[9] = male, C57/BL6, mouse, plasma, iv 5 mg/kg, parent drug
[10] = male, C57/BL6, mouse, plasma, po 50 mg/kg, parent drug

C[C@H]1[C@H](N2CCS(=O)(=O)CC2)O[C@@H]2O[C@@]3(C)CC[C@H]4[C@H](C)CC[C@@H]1[C@@]24OO3 [Artemisone 7, Artemisone]
concentration at 0.08 h ([1]; male, C57/BL6, mouse, plasma, po, 50 mg/kg, 0.08 h after po 50 mg/kg artemisox 6, read-out: Mean po circulating concentration): 3640 nM | concentration at 0.25 h ([1]; male, C57/BL6, mouse, plasma, po, 50 mg/kg, 0.25 h after po 50 mg/kg artemiside 5, read-out: Mean po circulating concentration): 1390 nM | concentration at 0.25 h ([1]; male, C57/BL6, mouse, plasma, po, 50 mg/kg, 0.25 h after po 50 mg/kg artemisone 7, read-out: Mean po circulating concentration): 1520 nM | concentration at 0.25 h ([1]; male, C57/BL6, mouse, plasma, po, 50 mg/kg, 0.25 h after po 50 mg/kg artemisox 6, read-out: Mean po circulating concentration): 3530 nM | concentration at 0.5 h ([1]; male, C57/BL6, mouse, plasma, po, 50 mg/kg, 0.5 h after po 50 mg/kg artemiside 5, read-out: Mean po circulating concentration): 1790 nM | concentration at 0.5 h ([1]; male, C57/BL6, mouse, plasma, po, 50 mg/kg, 0.5 h after po 50 mg/kg artemisone 7, read-out: Mean po circulating concentration): 1140 nM | concentration at 0.5 h ([1]; male, C57/BL6, mouse, plasma, po, 50 mg/kg, 0.5 h after po 50 mg/kg artemisox 6, read-out: Mean po circulating concentration): 3690 nM | concentration at 1 h ([1]; male, C57/BL6, mouse, plasma, po, 50 mg/kg, 1 h after po 50 mg/kg artemiside 5, read-out: Mean po circulating concentration): 1670 nM | concentration at 1 h ([1]; male, C57/BL6, mouse, plasma, po, 50 mg/kg, 1 h after po 50 mg/kg artemisone 7, read-out: Mean po circulating concentration): 357 nM | concentration at 1 h ([1]; male, C57/BL6, mouse, plasma, po, 50 mg/kg, 1 h after po 50 mg/kg artemisox 6, read-out: Mean po circulating concentration): 3200 nM | concentration at 3 h ([1]; male, C57/BL6, mouse, plasma, po, 50 mg/kg, 3 h after po 50 mg/kg artemiside 5, read-out: Mean po circulating concentration): 179 nM | concentration at 3 h ([1]; male, C57/BL6, mouse, plasma, po, 50 mg/kg, 3 h after po 50 mg/kg artemisone 7, read-out: Mean po circulating concentration): 12 nM | concentration at 3 h ([1]; male, C57/BL6, mouse, plasma, po, 50 mg/kg, 3 h after po 50 mg/kg artemisox 6, read-out: Mean po circulating concentration): 48 nM | concentration at 5 h ([1]; male, C57/BL6, mouse, plasma, po, 50 mg/kg, 5 h after po 50 mg/kg artemisox 6, read-out: Mean po circulating concentration): 7 nM | half-life ([1]; male, C57/BL6, mouse, plasma, po, 50 mg/kg, po 50 mg/kg, parent drug, mean ± SD, read-out: t½ (converted)): 23.4 ± 3 min | clearance ([1]; male, C57/BL6, mouse, plasma, iv 5 mg/kg): 88.3 mL/min/kg | AUC(0-inf) [1, 9]: 2.5 ± 0.6 µM·h | MRT last ([1]; male, C57/BL6, mouse, plasma, iv 5 mg/kg, parent drug, 0-last up to 7 h): 33.6 ± 4.2 min | AUC(0-t) [1, 9]: 2.4 ± 0.6 µM·h | Vd ([1]; male, C57/BL6, mouse, plasma, iv 5 mg/kg, read-out: Vss): 3 ± 0.5 L/kg | bioavailability ([1]; male, C57/BL6, mouse, plasma, po 50 mg/kg vs iv 5 mg/kg, read-out: F (bioavailability)): 4.9 ± 1.7% | Cmax [1, 10]: 1700 ± 400 nM | MRT last [1, 10]: 32.4 ± 7.8 min | AUC(0-t) [1, 10]: 1.1 ± 0.1 µM·h | MAT (mean absorption time = MRTpo–MRTiv) ([1]; po 50 mg/kg): 0 h | IC50 ([2]; asexual blood stage Pf K1, multidrug resistant, SYBR Green I, ± SEM): 1.01 ± 0.19 nM | RI (resistance index) = IC50 K1/IC50 NF54 [2]: 0.85 | IC50 [3]: 42.4 ± 3.3 nM | IC50 (P. falciparum W2): 1.69 nM | IC90 (P. falciparum W2): 3.42 nM | IC50 ([4]; 48 h life cycle, PfKI3 C580Y): 1.62 nM | IC90 ([4]; 48 h life cycle, PfKI3 C580Y): 3.38 nM | RI = IC50 for ARC08-22(4G)/IC50 for W2 [4]: 1.0 | EC50 (Toxoplasma gondii (Tg) [5]): 120 nM | mice surviving the infection, acute phase [6]: over 50% | mice with prolonged survival, reactivation stage (Toxoplasma gondii (Tg) [7]): 60% | neurotoxicity in vivo, effects observed ([8]; 10 mg/kg/d for 14 days by gavage in sesame oil): no effects were observed | neurotoxicity in vivo, effects observed ([8]; 50 mg/kg/d for 14 days by gavage in sesame oil): induced no effects

From paper PMC8704606, “The Artemiside-Artemisox-Artemisone-M1 Tetrad: Efficacies against Blood Stage P. falciparum Parasites, DMPK Properties, and the Case for Artemiside” (Pharmaceutics, 2021)
